The text below walks through data of paper PMC9250534, “Synthesis and direct assay of large macrocycle diversities by combinatorial late-stage modification at picomole scale” (Nature Communications, 2022).

Numbered stars: 1 amine (or outer) side, 2 acyl side, 3 side chain; on linkers, the order of the positions; unused ones are H or OH. Bridge positions count the residues as written; N and C are the ends. Square brackets hold non-standard residues; d marks the D form. Peptide text beside a SMILES is read from it. * marks the point of attachment. 2Thenoyl(5-Cl) = O=C(c1ccc(Cl)s1)*; Cysteamide = C(CS[*:3])N[*:1]; Orn = NCCC[CH](N)C(=O)O; Dap = NC[CH](N)C(=O)O; Mpa = O=C(O)CCS

The assay deals with T1, thrombin (Homo sapiens, UniProt P00734).
T1 construct: consists of two polypeptide chains of 36 (light chain) and 259 amino acid
Nature of the assay: Thrombin inhibition screen of crude macrocycle reactions (residual thrombin activity, fluorogenic substrate Z-Gly-Gly-Arg-AMC). It is filed as biochemical. The settings on record: 10 µM macrocycle concentration, macrocycles containing acid 14, crude reaction; for % thrombin activity, Repeat screen: replicate reaction and screen. The method, boiled down:
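Each crude macrocycle (10 μM) was preincubated 10 min at room temperature with thrombin (2 nM final) in Tris-Cl pH 7.4 containing NaCl, MgCl2, CaCl2, 0.1% BSA, 0.01% Triton X-100 and 0.6% DMSO. Z-Gly-Gly-Arg-AMC (50 μM final) was then added. Inhibition came from fluorescence slopes relative to DMSO-only controls.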

For the molecule `O=C1CCSSCCNC(=O)[C@H](CCCNC(=O)c2ccc(Cl)s2)NC(=O)[C@H](Cc2ccccc2)NC(=O)c2cccc(c2)CN1` [X B5 F D2], the “% thrombin activity, Original screen” value is reported as 81.9% and the “% thrombin activity, Repeat screen” value was determined as 80.4%.
For `NC(=O)CC[C@@H]1NC(=O)c2cccc(c2)CNC(=O)CCSSCCNC(=O)[C@H](CNC(=O)c2ccc(Cl)s2)NC1=O` [X B5 Q D3], the “% thrombin activity, Original screen” value is recorded as 95.3% and the “% thrombin activity, Repeat screen” value worked out at 96.2%.
As for `O=C1CCSSCCNC(=O)C(CCCCNC(=O)c2ccc(Cl)s2)NC(=O)C(CO)NC(=O)c2cccc(c2)CN1` (stereo not shown) [X B5 S D1], the “% thrombin activity, Original screen” value is on record as 96.4% and the “% thrombin activity, Repeat screen” value amounted to 100.5%.
On to `CC(C)CC1NC(=O)C(CCCNC(=O)c2ccc(Cl)s2)NC(=O)C2(CC2)CNC(=O)CCSSCCNC1=O` (stereo not shown) [X B6 D2 L], for which the “% thrombin activity, Original screen” value came to 107.3% and the “% thrombin activity, Repeat screen” value came out at 102.8%.
With `O=C1CCSSCCNC(=O)[C@H](Cc2c[nH]c3ccccc23)NC(=O)[C@H](CCCNC(=O)c2ccc(Cl)s2)NC(=O)C2(CC2)CN1` [X B6 D2 W], the “% thrombin activity, Original screen” value turned out to be 87.3% and the “% thrombin activity, Repeat screen” value worked out at 88.9%.
In the same order, the values of `O=C1CCSSCCNC(=O)[C@H](Cc2ccccc2)NC(=O)[C@H](CNC(=O)c2ccc(Cl)s2)NC(=O)C2(CC2)CN1` [X B6 D3 F] are 70.7% and 68.6%.
With `O=C1CCSSCCNC(=O)C(Cc2c[nH]c3ccccc23)NC(=O)C(CNC(=O)c2ccc(Cl)s2)NC(=O)C2(CC2)CN1` (stereo not shown) [X B6 D3 w], the “% thrombin activity, Original screen” value was found to be 92.5% and the “% thrombin activity, Repeat screen” value stood at 95.8%.
Turning to `NC(=O)CCC1NC(=O)C2CC(NC(=O)c3ccc(Cl)s3)CN2C(=O)C2(CC2)CNC(=O)CCSSCCNC1=O` (stereo not shown) [X B6 D5 Q], the “% thrombin activity, Original screen” value amounted to 109.4% and the “% thrombin activity, Repeat screen” value is given as 121.6%.
`CC(C)C[C@@H]1NC(=O)C2(CC2)CNC(=O)CCSSCCNC(=O)[C@H](CCCNC(=O)c2ccc(Cl)s2)NC1=O` [X B6 L D2]: the “% thrombin activity, Original screen” value is listed as 60.0% and the “% thrombin activity, Repeat screen” value amounted to 43.4%.
On the same counts, the results for `NC(=O)CC[C@@H]1NC(=O)C2(CC2)CNC(=O)CCSSCCNC(=O)[C@H](CCCNC(=O)c2ccc(Cl)s2)NC1=O` [X B6 Q D2] are 99.3% and 95.8%.
On the same counts, the results for `O=C1CCSSCCNC(=O)[C@H](CNC(=O)c2ccc(Cl)s2)NC(=O)[C@H](Cc2ccc(O)cc2)NC(=O)C2(CC2)CN1` [X B6 Y D3] are 68.6% and 63.8%.
For the molecule `O=C1CCSSCCNC(=O)[C@H](CNC(=O)c2ccc(Cl)s2)NC(=O)[C@@H](Cc2ccccc2)NC(=O)C2(CC2)CN1` [X B6 f D3], the “% thrombin activity, Original screen” value turned out to be 49.0% and the “% thrombin activity, Repeat screen” value was found to be 42.0%.
For the molecule `O=C1CCSSCCNC(=O)[C@@H](CNC(=O)c2ccc(Cl)s2)NC(=O)[C@@H](Cc2c[nH]c3ccccc23)NC(=O)C2(CC2)CN1` [X B6 w D4], the “% thrombin activity, Original screen” value is 102.8% and the “% thrombin activity, Repeat screen” value came out at 106.2%.
As to `C[C@H]1NC(=O)[C@@H]2CCCN2C(=O)[C@H](CCCCNC(=O)c2ccc(Cl)s2)NC(=O)CCSSCCNC1=O` [X D1 B1 a] ([Mpa]K(2Thenoyl(5-Cl))P[dA]-Cysteamide; disulfide 1-C), the “% thrombin activity, Original screen” value came out at 96.4% and the “% thrombin activity, Repeat screen” value worked out at 103.7%.
As for `O=C1CCSSCCNC(=O)C(CO)NC(=O)c2ccc(cc2)CNC(=O)C(CCCCNC(=O)c2ccc(Cl)s2)N1` (stereo not shown) [X D1 B3 S], the “% thrombin activity, Original screen” value is listed as 99.2% and the “% thrombin activity, Repeat screen” value worked out at 103.2%.
In the case of `O=C1CCSSCCNC(=O)[C@@H](Cc2ccc(O)cc2)NC(=O)[C@H]2CCCN(C2)C(=O)[C@H](CCCCNC(=O)c2ccc(Cl)s2)N1` [X D1 B4 y], the “% thrombin activity, Original screen” value stood at 99.9% and the “% thrombin activity, Repeat screen” value amounted to 100.1%.
With `O=C1CCSSCCNC(=O)[C@H]2CCCN(C2)C(=O)[C@H](Cc2ccccc2)NC(=O)[C@H](CCCCNC(=O)c2ccc(Cl)s2)N1` [X D1 F B4], the “% thrombin activity, Original screen” value is recorded as 99.6% and the “% thrombin activity, Repeat screen” value was 102.4%.
`O=C1CCSSCCNC(=O)C2(CC2)CNC(=O)[C@H](Cc2c[nH]cn2)NC(=O)[C@H](CCCCNC(=O)c2ccc(Cl)s2)N1` [X D1 H B6]: the “% thrombin activity, Original screen” value turned out to be 105.8% and the “% thrombin activity, Repeat screen” value is listed as 107.1%.
For `CCC(C)C1NC(=O)C(CCCCNC(=O)c2ccc(Cl)s2)NC(=O)CCSSCCNC(=O)C2(CC2)CNC1=O` (stereo not shown) [X D1 I B6], the “% thrombin activity, Original screen” value was found to be 91.0% and the “% thrombin activity, Repeat screen” value amounted to 93.6%.
Consider `NC(=O)CCC1NC(=O)C(CCCCNC(=O)c2ccc(Cl)s2)NC(=O)CCSSCCNC(=O)C2CCCN2C1=O` (stereo not shown) [X D1 Q B1] ([Mpa]K(2Thenoyl(5-Cl))QP-Cysteamide; disulfide 1-C; configuration not given here), for which the “% thrombin activity, Original screen” value came out at 102.2% and the “% thrombin activity, Repeat screen” value is given as 105.2%.
On the same counts, the results for `O=C1CCSSCCNC(=O)C2(CC2)CNC(=O)[C@H](CO)NC(=O)[C@H](CCCCNC(=O)c2ccc(Cl)s2)N1` [X D1 S B6] are 97.6% and 98.2%.
In the same order, the values of `CC[C@H](C)[C@@H]1NC(=O)CCNC(=O)[C@H](CCCNC(=O)c2ccc(Cl)s2)NC(=O)CCSSCCNC1=O` [X D2 B2 I] are 101.0% and 92.2%.
On the same counts, the results for `O=C1CCSSCCNC(=O)[C@H](Cc2cnc[nH]2)NC(=O)c2cccc(c2)CNC(=O)[C@H](CCCNC(=O)c2ccc(Cl)s2)N1` [X D2 B5 H] are 93.0% and 94.7%.
As to `O=C1CCSSCCNC(=O)[C@H](Cc2ccc(O)cc2)NC(=O)c2cccc(c2)CNC(=O)[C@H](CCCNC(=O)c2ccc(Cl)s2)N1` [X D2 B5 Y], the “% thrombin activity, Original screen” value is 78.2% and the “% thrombin activity, Repeat screen” value was found to be 66.2%. Under “listed as X D2 B5 y”, the “% thrombin activity, Original screen” value was 82.3% and the “% thrombin activity, Repeat screen” value amounted to 75.1%.
As for `O=C1CCSSCCNC(=O)c2cccc(c2)CNC(=O)[C@H](Cc2ccccc2)NC(=O)[C@H](CCCNC(=O)c2ccc(Cl)s2)N1` [X D2 F B5], the “% thrombin activity, Original screen” value is 95.3% and the “% thrombin activity, Repeat screen” value came to 93.4%.
For the molecule `CCC(C)C1NC(=O)C(CCCNC(=O)c2ccc(Cl)s2)NC(=O)CCSSCCNC(=O)C2CCCN2C1=O` (stereo not shown) [X D2 I B1] ([Mpa][Orn](2Thenoyl(5-Cl))IP-Cysteamide; disulfide 1-C; configuration not given here), the “% thrombin activity, Original screen” value came out at 96.9% and the “% thrombin activity, Repeat screen” value was 90.4%.
On the same counts, the results for `CC[C@H](C)[C@@H]1NC(=O)[C@H](CCCNC(=O)c2ccc(Cl)s2)NC(=O)CCSSCCNC(=O)CCNC1=O` [X D2 I B2] are 94.1% and 96.8%.
As to `CC(C)C[C@@H]1NC(=O)[C@H](CCCNC(=O)c2ccc(Cl)s2)NC(=O)CCSSCCNC(=O)[C@H]2CCCN(C2)C1=O` [X D2 L B4], the “% thrombin activity, Original screen” value is recorded as 98.3% and the “% thrombin activity, Repeat screen” value is given as 94.7%.
For the molecule `O=C1CCNC(=O)[C@H](CO)NC(=O)[C@H](CCCNC(=O)c2ccc(Cl)s2)NC(=O)CCSSCCN1` [X D2 S B2], the “% thrombin activity, Original screen” value is 105.4% and the “% thrombin activity, Repeat screen” value came out at 107.4%.
With `O=C1CCSSCCNC(=O)C2CCCN2C(=O)C(Cc2ccc(O)cc2)NC(=O)C(CCCNC(=O)c2ccc(Cl)s2)N1` (stereo not shown) [X D2 Y B1] ([Mpa][Orn](2Thenoyl(5-Cl))YP-Cysteamide; disulfide 1-C; configuration not given here), the “% thrombin activity, Original screen” value came out at 96.4% and the “% thrombin activity, Repeat screen” value worked out at 96.3%.
On to `C[C@H]1NC(=O)[C@H](CCCNC(=O)c2ccc(Cl)s2)NC(=O)CCSSCCNC(=O)CCNC1=O` [X D2 a B2], for which the “% thrombin activity, Original screen” value stood at 108.5% and the “% thrombin activity, Repeat screen” value was determined as 109.5%.
As to `CC(C)C1NC(=O)C2CCCN2C(=O)C(CNC(=O)c2ccc(Cl)s2)NC(=O)CCSSCCNC1=O` (stereo not shown) [X D3 B1 v] ([Mpa][Dap](2Thenoyl(5-Cl))PV-Cysteamide; disulfide 1-C; configuration not given here), the “% thrombin activity, Original screen” value is 92.1% and the “% thrombin activity, Repeat screen” value is 95.4%. Where the note is “listed as X D3 B1 V”, the “% thrombin activity, Original screen” value came out at 98.0% and the “% thrombin activity, Repeat screen” value is on record as 99.7%.
Regarding `O=C1CCSSCCNC(=O)[C@H](Cc2ccccc2)NC(=O)CCNC(=O)[C@H](CNC(=O)c2ccc(Cl)s2)N1` [X D3 B2 F], the “% thrombin activity, Original screen” value is 56.1% and the “% thrombin activity, Repeat screen” value amounted to 56.2%.
On the same counts, the results for `O=C1CCSSCCNC(=O)C(Cc2c[nH]cn2)NC(=O)CCNC(=O)C(CNC(=O)c2ccc(Cl)s2)N1` (stereo not shown) [X D3 B2 H] are 78.9% and 71.1%.
Take `NC(=O)CCC1NC(=O)CCNC(=O)C(CNC(=O)c2ccc(Cl)s2)NC(=O)CCSSCCNC1=O` (stereo not shown) [X D3 B2 Q]: the “% thrombin activity, Original screen” value stood at 91.4% and the “% thrombin activity, Repeat screen” value came out at 92.1%.
Regarding `O=C1CCSSCCNC(=O)[C@H](Cc2c[nH]c3ccccc23)NC(=O)c2ccc(cc2)CNC(=O)[C@H](CNC(=O)c2ccc(Cl)s2)N1` [X D3 B3 W], the “% thrombin activity, Original screen” value was determined as 68.7% and the “% thrombin activity, Repeat screen” value was determined as 73.3%.
